Measurements taken from the Kinase Knowledgebase extract (Sharma et al. 2016).
Several values for one entry are separate records, joined by “and”; a condition that tells them apart may be missing. Equal values may be shown once.

Target: MAPK14 (human) (UniProt Q16539)
Assay: Inhibition of MAPK14 Kinase Activity
Details: THP.1 monocytic

Chain of MAPK14 (human) (Q16539 whole entry, looked up): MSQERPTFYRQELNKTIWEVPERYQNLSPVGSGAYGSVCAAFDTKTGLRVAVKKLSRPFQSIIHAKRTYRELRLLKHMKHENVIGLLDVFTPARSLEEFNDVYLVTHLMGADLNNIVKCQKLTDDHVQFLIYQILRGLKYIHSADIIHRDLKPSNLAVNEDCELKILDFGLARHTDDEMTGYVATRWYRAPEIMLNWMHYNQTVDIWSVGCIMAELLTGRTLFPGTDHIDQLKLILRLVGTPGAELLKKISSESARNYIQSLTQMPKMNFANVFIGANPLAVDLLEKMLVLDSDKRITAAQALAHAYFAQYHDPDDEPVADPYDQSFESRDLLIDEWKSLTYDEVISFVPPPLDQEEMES

Row | Compound | IC50
1 | Cc1cc(OCc2ccc(F)cc2F)c(Br)c(=O)n1-c1c(F)cc(N2CCOCC2)cc1F | < 1 µM
2 | CNC(=O)c1cnc(Cn2c(C)cc(OCc3ccc(F)cc3F)c(Br)c2=O)cn1 | 1 to 25 µM
3 | COC(=O)NCc1cccc(Cn2c(C)cc(OCc3ccc(F)cc3F)c(Br)c2=O)c1 | < 1 µM
4 | CC(=O)OCC(=O)NCc1cccc(-n2c(C)cc(OCc3ccc(F)cc3F)c(Br)c2=O)c1 | 1 to 25 µM
5 | COCC(=O)NCc1cccc(-n2c(C)cc(OCc3ccc(F)cc3F)c(Br)c2=O)c1 | 1 to 25 µM
6 | C=CCNc1cc(=O)n(-c2c(F)cccc2F)c(C)c1I | 1 to 25 µM
7 | CCOC(=O)CNc1nc(C)ncc1Cn1c(C)cc(OCc2ccc(F)cc2F)c(Br)c1=O | 1 to 25 µM
8 | Cc1cc(OCc2ccc(F)cc2F)c(Br)c(=O)n1-c1c(F)cc(N(C)C)cc1F | < 1 µM
9 | Cc1cc(OCc2ccc(F)cc2F)c(Cl)c(=O)n1-c1c(F)cccc1F | < 1 µM
10 | CCOC(=O)c1ccc(-n2c(C)cc(OCc3ccc(F)cc3F)c(Br)c2=O)nc1 | 25 to 100 µM
11 | Cc1cc(OCc2ccc(F)cc2F)c(Br)c(=O)n1CC1CC1 | < 1 µM
12 | Cc1cc(OCc2ccc(F)cc2F)c(Cl)c(=O)n1Cc1cnc(CO)cn1 | 1 to 25 µM
13 | Cc1c(C=NO)c(OCc2ccc(F)cc2F)c(Br)c(=O)n1-c1c(F)cccc1F | 25 to 100 µM
14 | Cc1cnc(Cn2c(C)cc(OCc3ccc(F)cc3F)c(Br)c2=O)cn1 | < 1 µM
15 | Cc1cc(OCc2ccc(F)cc2F)c(Br)c(=O)n1Cc1ccc(C(=O)N(C)CCO)cc1 | < 1 µM
16 | Cc1ccc(CNC(C)C)cc1-n1c(C)cc(OCc2ccc(F)cc2F)c(Br)c1=O | 1 to 25 µM
17 | Cc1cc(OCc2ccc(F)cc2F)c(Br)c(=O)n1Cc1cccc(CN2CCCCC2)c1 | < 1 µM
18 | COc1ccc(C(=O)N(C)C)cc1-n1c(C)cc(OCc2ccc(F)cc2F)c(Br)c1=O | < 1 µM
19 | CCOC(=O)c1cnc(Cn2c(C)cc(OCc3ccc(F)cc3F)c(Cl)c2=O)cn1 | < 1 µM
20 | Cc1c(C2CO2)c(OCc2ccc(F)cc2F)c(Br)c(=O)n1-c1c(F)cccc1F (configuration not stated) | 25 to 100 µM
21 | Cc1cc(OCc2ccc(F)cc2F)c(Br)c(=O)n1-c1cccc(C(=O)NC(C)C)c1 | < 1 µM
22 | Cc1ccc(C(N)=O)cc1-n1c(C)cc(OCc2ccc(F)cc2F)c(Cl)c1=O | < 1 µM
23 | Cc1cc(OCc2ccc(F)cc2F)c(Br)c(=O)n1-c1ccc2cn[nH]c2c1 | < 1 µM

Row | Compound | IC50
24 | Cc1cc(OCc2ccc(F)cc2F)c(Cl)c(=O)n1-c1c(F)cc(N2CCN(C)CC2)cc1F | < 1 µM
25 | Cc1cc(NCc2ccc(F)cc2F)c(Cl)c(=O)n1Cc1cccc(C#N)c1 | < 1 µM
26 | Cc1ccc(CO)cc1-n1c(C)cc(OCc2ccc(F)cc2F)c(Cl)c1=O | < 1 µM
27 | CC(=O)NCc1cccc(Cn2c(C)cc(OCc3ccc(F)cc3F)c(Br)c2=O)c1 | < 1 µM
28 | Cc1cc(OCc2ccc(F)cc2F)c(Br)c(=O)n1-c1cc(C(N)=O)ccc1F | < 1 µM
29 | Cc1c(C(O)CO)c(OCc2ccc(F)cc2F)c(Br)c(=O)n1-c1c(F)cccc1F (configuration not stated) | 25 to 100 µM
30 | O=c1c(Br)c(NCc2ccc(F)cc2C(F)(F)F)ccn1Cc1cccc(F)c1 | > 100 µM
31 | C=CCn1c(C)cc(OCc2ccc(F)cc2F)c(Br)c1=O | < 1 µM
32 | Cc1cc(OCc2ccc(F)cc2F)c(Br)c(=O)n1-c1cccc(C(=O)NCCN(C)C)c1 | < 1 µM
33 | COC(=O)c1ccc(-n2c(C)cc(OCc3ccc(F)cc3F)c(Br)c2=O)c(Cl)c1 | < 1 µM
34 | Cc1cc(OCc2ccc(F)cc2F)c(Br)c(=O)n1-c1cccc(CNC(N)=O)c1 | 1 to 25 µM
35 | Cc1cc(OCc2ccc(F)cc2F)c(Br)c(=O)n1Cc1ccc(CN(CCO)CCO)cc1 | < 1 µM
36 | Cc1cc(OCc2ccc(F)cc2F)c(Cl)c(=O)n1-c1cccc(C(=O)O)c1 | 1 to 25 µM
37 | Cc1cc(OCc2ccc(F)cc2F)c(Br)c(=O)n1-c1ccc(CNC(=O)CO)cc1 | < 1 µM
38 | O=c1c(Cl)c(OCc2ccc(F)cc2F)cc(CO)n1-c1c(F)cc(F)cc1F | < 1 µM
39 | Cc1cc(OCc2ccc(F)cc2F)c(Br)c(=O)n1-c1ccc(C(=O)NCCCN)cc1 | < 1 µM
40 | Cc1cc(OCc2ccc(F)cc2F)c(Br)c(=O)n1Cc1cccc(CNS(C)(=O)=O)c1 | < 1 µM
41 | Cc1cc(OCc2ccc(F)cc2F)c(Br)c(=O)n1Cc1ccc(C(=O)NC(C)C)cc1 | < 1 µM
42 | Cc1cc(OCc2ccc(F)cc2F)c(Br)c(=O)n1-c1cccc(C(=O)N(C)C)c1 | < 1 µM
43 | Cc1cc(OCc2ccc(F)cc2F)c(Br)c(=O)n1-c1ccc(C(=O)NCCN)cc1 | < 1 µM
44 | Cc1cc(OCc2ccc(F)cc2F)c(Br)c(=O)n1-c1c(F)cc(Br)cc1F | < 1 µM
45 | O=Cc1cc(OCc2ccc(F)cc2F)c(Br)c(=O)n1-c1c(F)cccc1F | < 1 µM
46 | CN(C)Cc1cc(OCc2ccc(F)cc2F)c(Br)c(=O)n1-c1c(F)cccc1F | < 1 µM

Row | Compound | IC50
47 | Cc1cc(OCc2ccc(F)cc2F)c(Br)c(=O)n1-c1cc(CO)ccc1F | 1 to 25 µM
48 | CNC(=O)c1ccc(C)c(-n2c(C)cc(OCc3ccc(F)cc3F)c(Cl)c2=O)c1 | < 1 µM
49 | Cc1cc(OCc2ccc(F)cc2F)c(Br)c(=O)n1Cc1ccnc(CN)n1 | 1 to 25 µM
50 | Cc1cc(OCc2ccc(F)cc2F)c(Br)c(=O)n1-c1cccc(CN)c1 | 1 to 25 µM
51 | C=CCNc1cc(C)n(-c2c(F)cccc2F)c(=O)c1Br | 1 to 25 µM
52 | O=c1c(Cl)c(OCc2ccc(F)cc2F)cc(CO)n1-c1c(F)cccc1F | < 1 µM
53 | Cc1cc(OCc2ccc(F)cc2F)c(Br)c(=O)n1-c1cccc(C(=O)NCCO)c1 | < 1 µM
54 | Cc1cc(OCc2ccc(F)cc2F)c(Br)c(=O)n1Cc1cnc(CN(C)C)cn1 | 1 to 25 µM
55 | Cc1cc(OCc2ccc(F)cc2F)c(Br)c(=O)n1-c1c(F)cc(N2CCN(C)CC2)cc1F | < 1 µM
56 | CNC(=O)c1cccc(-n2c(C)cc(OCc3ccc(F)cc3F)c(Br)c2=O)c1 | < 1 µM
57 | Cc1cc(OCc2ccc(F)cc2F)c(Cl)c(=O)n1-c1cccc(CO)c1 | 1 to 25 µM
58 | Cc1cc(OCc2ccc(F)cc2F)c(Br)c(=O)n1CCN1CCOCC1 | 25 to 100 µM
59 | Cc1cc(OCc2ccc(F)cc2F)c(Br)c(=O)n1-c1cccc(CNS(C)(=O)=O)c1 | 1 to 25 µM
60 | COC(=O)NCc1cccc(-n2c(C)cc(OCc3ccc(F)cc3F)c(Br)c2=O)c1 | 1 to 25 µM
61 | Cc1cnc(Cn2c(C)cc(OCc3ccc(F)cc3F)c(Cl)c2=O)cn1 | < 1 µM
62 | CNC(=O)NCc1cccc(-n2c(C)cc(OCc3ccc(F)cc3F)c(Br)c2=O)c1 | 1 to 25 µM
63 | Cc1cc(OCc2ccc(F)cc2F)c(Cl)c(=O)n1-c1cc(CO)ccc1Cl | < 1 µM
64 | Cc1ncc(Cn2c(C)cc(OCc3ccc(F)cc3F)c(Cl)c2=O)c(N)n1 | 1 to 25 µM
65 | Cc1cc(OCc2ccc(F)cc2F)c(Br)c(=O)n1-c1cccc(CNC(=O)N(C)C)c1 | 1 to 25 µM
66 | Cc1c(C#N)c(OCc2ccc(F)cc2F)c(Br)c(=O)n1-c1c(F)cccc1F | 25 to 100 µM
67 | COCCN(C)C(=O)c1ccc(Cn2c(C)cc(OCc3ccc(F)cc3F)c(Br)c2=O)cc1 | < 1 µM
68 | Cc1cc(OCc2ccc(F)cc2F)c(Br)c(=O)n1-c1c(F)cc(N(C)CCO)cc1F | < 1 µM

Further lines, results first:

Row | IC50 | Compound
69 | 1 to 25 µM | C#Cc1c(OCc2ccccc2)ccn(Cc2cccc(F)c2)c1=O
70 | 1 to 25 µM | Cc1cc(OCc2ccc(F)cc2F)c(Br)c(=O)n1Cc1ccccc1C#N
71 | 1 to 25 µM | NCc1ccccc1Cn1ccc(OCc2ccccc2)c(Br)c1=O
72 | < 1 µM | Cc1cc(OCc2ccc(F)cc2F)c(Br)c(=O)n1Cc1ccc(C(=O)N(C)C)cc1
73 | < 1 µM | O=c1c(Br)c(OCc2ccccc2)ccn1Cc1ccc(Br)cc1
74 | > 100 µM | O=c1c(Br)c(O)ccn1Cc1ccc(O)cc1
75 | 1 to 25 µM | O=C(Nc1ccn(Cc2cccc(F)c2)c(=O)c1Br)c1ccc(F)cc1
76 | 1 to 25 µM | O=c1c(Br)c(NCc2ccc(Cl)cc2F)ccn1Cc1cccc(F)c1
77 | 1 to 25 µM | CCOC(=O)CCn1ccc(OCc2ccccc2)c(Br)c1=O
78 | 1 to 25 µM | CCn1ccc(OCc2ccccc2)c(Br)c1=O
79 | 25 to 100 µM | Cc1ccc(Cn2ccc(OCc3ccccc3)cc2=O)cc1
80 | 1 to 25 µM | Cc1cc(OCc2cccc(Cl)c2)c(Br)c(=O)n1Cc1ccccc1
81 | 1 to 25 µM | O=c1c(I)c(OCc2ccccc2)ccn1Cc1ccccc1
82 | > 100 µM | CC(C)(C)c1ccc(COc2ccn(Cc3cccc(F)c3)c(=O)c2Br)cc1
83 | 25 to 100 µM | O=c1cc(OCc2cccc(Cl)c2)ccn1Cc1ccccc1
84 | 1 to 25 µM | Cc1cc(CCc2ccccc2)c(Br)c(=O)n1Cc1cccc(F)c1
85 | < 1 µM | Cc1cc(OCc2ccc(F)cc2F)c(Br)c(=O)n1Cc1cccc(CN)c1
86 | 1 to 25 µM | Cn1ccc(OCc2ccccc2)c(Br)c1=O
87 | 1 to 25 µM | O=c1c(Br)c(CCc2ccccc2)ccn1Cc1cccc(F)c1
88 | < 1 µM | O=c1c(Br)c(OCc2ccccc2)ccn1Cc1ccc(Cl)cc1

Row | IC50 | Compound
89 | 1 to 25 µM | O=c1c(Br)c(CCc2ccccc2)ccn1Cc1ccccc1
90 | > 100 µM | O=c1c(Br)c(OCc2ccccc2)ccn1CC1CCCNC1 (configuration not stated)
91 | > 100 µM | O=c1cc(OCc2c(Cl)cccc2Cl)ccn1Cc1ccccc1
92 | < 1 µM | Cc1cccc(COc2ccn(Cc3cccc(F)c3)c(=O)c2Br)c1
93 | < 1 µM and 1 to 25 µM | Cc1cc(OCc2ccc(F)cc2F)c(Br)c(=O)n1Cc1ccc(C(=O)NO)cc1
94 | 1 to 25 µM | COC(=O)CCn1ccc(OCc2ccccc2)c(Br)c1=O
95 | 1 to 25 µM | Cc1cc(OCc2ccc(F)cc2F)c(Br)c(=O)n1Cc1cccc(C(=O)O)c1
96 | 25 to 100 µM | Cc1c(Br)c(OCc2ccccc2)c(Br)c(=O)n1Cc1ccccc1
97 | 1 to 25 µM | Cc1c(I)c(NCc2ccccc2)c(Br)c(=O)n1-c1c(F)cccc1F
98 | 1 to 25 µM | CC(C)(C)c1ccc(Cn2ccc(OCc3ccc(F)cc3)c(Br)c2=O)cc1
99 | 1 to 25 µM | NC(=O)c1cccc(Cn2ccc(OCc3ccccc3)c(Br)c2=O)c1
100 | < 1 µM | CC(=O)Nc1ccc(Cn2c(C)cc(OCc3ccc(F)cc3F)c(Br)c2=O)cc1
101 | < 1 µM | O=c1c(Br)c(NCc2ccc(F)cc2F)ccn1Cc1cccc(F)c1
102 | 1 to 25 µM | O=C(Nc1ccn(Cc2cccc(F)c2)c(=O)c1Br)c1c(F)cccc1F
103 | > 100 µM | O=c1c(Br)c(OCc2ccccc2-c2ccccc2)ccn1Cc1cccc(F)c1
104 | 25 to 100 µM | O=c1c(C(F)(F)F)c(OCc2ccccc2)ccn1Cc1cccc(F)c1
105 | 1 to 25 µM | Cc1cc(OCc2ccc(F)cc2F)c(Br)c(=O)n1Cc1ccccc1C(N)=O
106 | < 1 µM | Cc1cc(OCc2ccc(F)cc2F)c(Br)c(=O)n1Cc1ccc(CN2CCOCC2)cc1
107 | 1 to 25 µM | O=c1c(Br)c(OCc2ccccc2Cl)ccn1Cc1ccccc1
